The source of these data is PubChem BioAssay (NCI).

Structures are written as SMILES.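 Grown in 96-well plates, cells were treated for 48 hours with each compound at five concentrations. Insufficient inhibition: endpoint recorded as highest concentration tested. The concentration for 50% growth inhibition is given as GI50. The concentration for full growth arrest is given as TGI.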

Test systems include NCI-H226 lung; HL-60(TB) leukemia; UO-31 renal; SF-539 CNS; SK-OV-3 ovarian; SK-MEL-28 melanoma; SNB-19 CNS; SK-MEL-2 melanoma; SW-620 colon; MALME-3M melanoma.
What all share (test): DTP human tumour cell line panel, 48 h

In general, TGI refers to the concentration giving total growth inhibition. Turning to `CC(=S)NC1C(Oc2ccc3c(C)cc(=O)oc3c2)OC(CO)C(O)C1O` (stereo unspecified), the TGI in the experiment with NCI-H226 lung, in the experiment on HL-60(TB) leukemia, in the experiment on UO-31 renal, with SF-539 CNS, in the experiment with SK-OV-3 ovarian and with SK-MEL-28 melanoma was above 100 µM each time. Moreover, the TGI in the experiment with SNB-19 CNS, in the experiment on SK-MEL-2 melanoma and in the experiment on SW-620 colon was above 100 µM each time.

For `C[Si](C)(C)C1=C2C(=O)c3ccccc3C(=O)C2=C([Si](C)(C)C)[C@@H]2CCCC[C@H]12`, the TGI with HL-60(TB) leukemia, in the experiment on UO-31 renal, in the experiment on MALME-3M melanoma, in the experiment on SF-539 CNS, in the experiment with SK-OV-3 ovarian and in the experiment on SK-MEL-28 melanoma was above 100 µM throughout. In addition, the TGI in the experiment on SNB-19 CNS, in the experiment on SK-MEL-2 melanoma and in the experiment with SW-620 colon was above 100 µM each time.

`CC(C)OP(=O)(OC(C)C)c1ncn(-c2ccc([N+](=O)[O-])cc2)n1`: the TGI in the experiment on NCI-H226 lung, in the experiment on HL-60(TB) leukemia, in the experiment on UO-31 renal, in the experiment with MALME-3M melanoma, in the experiment with SF-539 CNS and in the experiment on SK-OV-3 ovarian was above 100 µM each time. In addition, the TGI with SK-MEL-28 melanoma, in the experiment on SNB-19 CNS, with SK-MEL-2 melanoma and in the experiment with SW-620 colon was above 100 µM each time.

In the case of `Cc1cccc2ns[s+]c12`, the TGI in the experiment with NCI-H226 lung, with HL-60(TB) leukemia, with UO-31 renal, in the experiment with MALME-3M melanoma, with SF-539 CNS and with SK-OV-3 ovarian was above 100 µM throughout. The TGI was above 100 µM in the experiment with SK-MEL-28 melanoma, above 100 µM with SNB-19 CNS and 32.7 µM with SW-620 colon.

What is called GI50 is the concentration that inhibits growth by half. Regarding `COc1ccc2c(c1)CCC1C2CCC2(C)C1CC[C@@]2(O)CNC(=O)/C=C/c1ccc(O)c(O)c1` (stereo partly specified), the GI50 was 9.76 µM in the experiment with NCI-H226 lung; 0.595 µM with HL-60(TB) leukemia; 3.56 µM with MALME-3M melanoma; 2.08 µM in the experiment with SF-539 CNS; 14.8 µM in the experiment with SK-OV-3 ovarian; 4.33 µM in the experiment on SK-MEL-28 melanoma. Also, the GI50 in the experiment on SNB-19 CNS is 3.31 µM; in the experiment on SK-MEL-2 melanoma, 5.59 µM; in the experiment with SW-620 colon it was 4.07 µM. In addition, the TGI with NCI-H226 lung was 35.3 µM; in the experiment with HL-60(TB) leukemia it was 3.97 µM; in the experiment with MALME-3M melanoma it was 9.6 µM; in the experiment with SF-539 CNS it was 6.75 µM; in the experiment on SK-OV-3 ovarian it was above 100 µM; in the experiment on SK-MEL-28 melanoma it was 31.8 µM. In addition, the results for the TGI with SNB-19 CNS, with SK-MEL-2 melanoma and in the experiment on SW-620 colon were above 100 µM, 29.7 µM and above 100 µM, respectively.

As for `O=C(CCc1nnc2s/c(=C\c3ccc(Cl)cc3Cl)c(=O)n12)Nc1cc(Cl)c(Cl)cc1Cl`, the GI50 with NCI-H226 lung, with UO-31 renal, with MALME-3M melanoma, in the experiment with SF-539 CNS, in the experiment with SK-OV-3 ovarian and with SK-MEL-28 melanoma was above 100 µM throughout. In addition, the GI50 in the experiment on SK-MEL-2 melanoma and with SW-620 colon was above 100 µM throughout. For the same compound, the total growth inhibition concentration (TGI) with NCI-H226 lung, in the experiment with HL-60(TB) leukemia, in the experiment on UO-31 renal, with MALME-3M melanoma, in the experiment on SF-539 CNS and in the experiment with SK-OV-3 ovarian was above 100 µM each time. In addition, the TGI in the experiment on SK-MEL-28 melanoma, in the experiment with SK-MEL-2 melanoma and with SW-620 colon was above 100 µM throughout.

Take `CN1C(=N\S(=O)(=O)c2ccc(Cl)cc2)/C(=N/N=P(c2ccccc2)(c2ccccc2)c2ccccc2)c2ccccc21`: the TGI in the experiment on NCI-H226 lung, in the experiment with UO-31 renal, in the experiment with MALME-3M melanoma, with SF-539 CNS, in the experiment on SK-OV-3 ovarian and with SK-MEL-28 melanoma was above 100 µM in each case. The TGI with SNB-19 CNS, with SK-MEL-2 melanoma and in the experiment on SW-620 colon was above 100 µM throughout.
